“And” between values parts separate entries of the source, which are not always exact repeats. Identical values can stand only once. Inconclusive results and toxic doses are left out. The calls were made as follows: active = survival T/C of 150% or more; inactive = T/C below 125% in these data.
System: P388 leukemia ip, CD2F1 mice, survival T/C
Assay: NCI In Vivo Anticancer Drug Screen. Data for tumor model P388 Leukemia (intraperitoneal) in CD2F1 (CDF1) mice
Conditions: endpoint: median survival time, higher = longer survival
How it was run: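 Mice carrying the transplanted tumor received test compound or vehicle. Survival was recorded in each group, and the value is the treated-group measurement divided by that of the vehicle-treated control group.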

[1] = dose: 3.12 mg/kg/injection, schedule: Q01DX005 (ip), vehicle: Klucel (hydroxypropylcellulose) (HPC)
[2] = dose: 6.25 mg/kg/injection, schedule: Q01DX005 (ip), vehicle: Klucel (hydroxypropylcellulose) (HPC)
[3] = dose: 50.0 mg/kg/injection, schedule: Q01DX005 (ip), vehicle: Klucel (hydroxypropylcellulose) (HPC)
[4] = dose: 100.0 mg/kg/injection, schedule: Q01DX005 (ip), vehicle: Klucel (hydroxypropylcellulose) (HPC)
[5] = dose: 200.0 mg/kg/injection, schedule: Q01DX005 (ip), vehicle: Klucel (hydroxypropylcellulose) (HPC)
[6] = dose: 60.0 mg/kg/injection, schedule: Q01DX005 (ip), vehicle: saline
[7] = dose: 120.0 mg/kg/injection, schedule: Q01DX005 (ip), vehicle: saline
[8] = dose: 100.0 mg/kg/injection, schedule: Q01DX009 (ip), vehicle: saline with Tween-80
[9] = dose: 200.0 mg/kg/injection, schedule: Q01DX009 (ip), vehicle: saline with Tween-80
[10] = dose: 400.0 mg/kg/injection, schedule: Q01DX009 (ip), vehicle: saline with Tween-80

Measured: T/C

O=[N+]([O-])c1ccc(C2=C[P+](c3ccccc3)(c3ccccc3)c3ccccc3O2)cc1
inactive: dose: 0.78 mg/kg/injection, schedule: Q01DX005 (ip), vehicle: Klucel (hydroxypropylcellulose) (HPC) 106 % of control | dose: 1.56 mg/kg/injection, schedule: Q01DX005 (ip), vehicle: Klucel (hydroxypropylcellulose) (HPC) 115 % of control | [1] 117 % of control | [2] 112 % of control

CN(C)c1ccc(/C=N/N=C(/C#N)[S][Sn]([S]/C(C#N)=N/N=C/c2ccc(N(C)C)cc2)([c]2ccccc2)[c]2ccccc2)cc1
inactive: dose: 7.5 mg/kg/injection, schedule: Q01DX005 (ip), vehicle: saline with Tween-80 112 % of control | dose: 15.0 mg/kg/injection, schedule: Q01DX005 (ip), vehicle: saline with Tween-80 123 % of control

Nc1ccc2snc3c2c1C(=O)c1ccccc1-3
inactive: [3] 99 % of control | [4] 91 % of control | [5] 100 % of control

C=C1C(=O)OC2C1CCC(=C)C1CC(OC3OC(CO)C(O)C(O)C3O)C(=C)C12 (stereo unspecified)
inactive: dose: 50.0 mg/kg/injection, schedule: Q04DX003 (ip), vehicle: saline with Tween-80 93 % of control | dose: 100.0 mg/kg/injection, schedule: Q04DX003 (ip), vehicle: saline with Tween-80 105 % of control and 86 % of control | dose: 200.0 mg/kg/injection, schedule: Q04DX003 (ip), vehicle: saline with Tween-80 104 % of control | dose: 400.0 mg/kg/injection, schedule: Q04DX003 (ip), vehicle: saline with Tween-80 104 % of control and 124 % of control

O=c1[nH]nnc2ccccc12
inactive: dose: 50.0 mg/kg/injection, schedule: Q01DX009 (ip), vehicle: Klucel (hydroxypropylcellulose) (HPC) 105 % of control | dose: 100.0 mg/kg/injection, schedule: Q01DX009 (ip), vehicle: Klucel (hydroxypropylcellulose) (HPC) 114 % of control

O=C(N1CCOCC1)C12OC3CC(CC(C3)O1)O2
inactive: [6] 102 % of control | [7] 104 % of control | dose: 240.0 mg/kg/injection, schedule: Q01DX005 (ip), vehicle: saline 105 % of control

CC(=O)NCCn1ccnc1
inactive: dose: 50.0 mg/kg/injection, schedule: Q01DX009 (ip), vehicle: saline 95 % of control | dose: 100.0 mg/kg/injection, schedule: Q01DX009 (ip), vehicle: saline 102 % of control | dose: 200.0 mg/kg/injection, schedule: Q01DX009 (ip), vehicle: saline 102 % of control

CC1=C(c2ccccc2)C2(c3ccccc3)[N-][n+]3c(ccc4ccccc43)C2(C)C1=O (stereo unspecified)
inactive: [3] 97 % of control | [4] 97 % of control

COc1ccc2sc(-c3ccccc3)cc(=O)c2c1CCl
inactive: dose: 100.0 mg/kg/injection, schedule: Q01DX001 (ip), vehicle: saline with Tween-80 94 % of control | dose: 200.0 mg/kg/injection, schedule: Q01DX001 (ip), vehicle: saline with Tween-80 97 % of control | dose: 400.0 mg/kg/injection, schedule: Q01DX001 (ip), vehicle: saline with Tween-80 100 % of control

O=C(CNO)OCc1ccccc1
inactive: dose: 25.0 mg/kg/injection, schedule: Q01DX009 (ip), vehicle: other 97 % of control | dose: 50.0 mg/kg/injection, schedule: Q01DX009 (ip), vehicle: other 106 % of control | dose: 100.0 mg/kg/injection, schedule: Q01DX009 (ip), vehicle: other 104 % of control | dose: 200.0 mg/kg/injection, schedule: Q01DX009 (ip), vehicle: other 100 % of control | dose: 400.0 mg/kg/injection, schedule: Q01DX009 (ip), vehicle: other 106 % of control

O=C1O/C(=C\c2ccccc2)c2c(Br)c(Br)c(Br)c(Br)c21
inactive: dose: 50.0 mg/kg/injection, schedule: Q01DX009 (ip), vehicle: saline with Tween-80 94 % of control | [8] 93 % of control | [9] 99 % of control | [10] 99 % of control

CC(=O)C1=C(C)NC(C)=C(C(C)=O)C1c1ccccc1
inactive: [8] 100 % of control | [9] 100 % of control | [10] 90 % of control

CS(C)=NS(C)(=O)=O
inactive: dose: 100.0 mg/kg/injection, schedule: Q01DX001 (ip), vehicle: saline 113 % of control | dose: 200.0 mg/kg/injection, schedule: Q01DX001 (ip), vehicle: saline 106 % of control | dose: 400.0 mg/kg/injection, schedule: Q01DX001 (ip), vehicle: saline 107 % of control

Cc1cc(NCCCCCCCCNc2cc(C)nc3cc(N)ccc23)c2ccc(N)cc2n1
inactive: dose: 0.78 mg/kg/injection, schedule: Q01DX009 (ip), vehicle: water 119 % of control | dose: 1.56 mg/kg/injection, schedule: Q01DX009 (ip), vehicle: water 123 % of control

N#Cc1[nH]nc2nc[nH]c(=O)c12
inactive: dose: 100.0 mg/kg/injection, schedule: Q04DX002 (ip), vehicle: water 114 % of control | dose: 200.0 mg/kg/injection, schedule: Q04DX002 (ip), vehicle: water 113 % of control

CCCCCCCC/C=C\CCCCCCCCSC1=CC(=O)C(OC)=C(OC)C1=O
inactive: dose: 3.13 mg/kg/injection, schedule: Q01DX009 (ip), vehicle: Klucel (hydroxypropylcellulose) (HPC) 98 % of control | dose: 6.25 mg/kg/injection, schedule: Q01DX009 (ip), vehicle: Klucel (hydroxypropylcellulose) (HPC) 96 % of control | dose: 12.5 mg/kg/injection, schedule: Q01DX009 (ip), vehicle: Klucel (hydroxypropylcellulose) (HPC) 100 % of control | dose: 25.0 mg/kg/injection, schedule: Q01DX009 (ip), vehicle: Klucel (hydroxypropylcellulose) (HPC) 103 % of control

Cn1c2ccccc2c2cc3c(cc21)C(=O)OC3=O
inactive: [1] 100 % of control | [2] 93 % of control | dose: 12.5 mg/kg/injection, schedule: Q01DX005 (ip), vehicle: Klucel (hydroxypropylcellulose) (HPC) 90 % of control | [3] 88 % of control | [4] 90 % of control

Cc1ccc(C)c(NC(=O)CCC(=O)C(C#N)c2nc3ccccc3s2)c1 (stereo unspecified)
inactive: dose: 60.0 mg/kg/injection, schedule: Q01DX005 (ip), vehicle: saline with Tween-80 103 % of control | dose: 120.0 mg/kg/injection, schedule: Q01DX005 (ip), vehicle: saline with Tween-80 102 % of control | dose: 240.0 mg/kg/injection, schedule: Q01DX005 (ip), vehicle: saline with Tween-80 97 % of control

N#CCCN(N)S(=O)(=O)c1ccc(Br)cc1
inactive: [3] 102 % of control | [4] 96 % of control | [5] 115 % of control

Cc1nc2c(cnn2C)c(=O)n1-c1ccccc1
inactive: [3] 96 % of control | [4] 98 % of control | [5] 100 % of control

O=C1NC(Cc2c[nH]c3ccccc23)C(=O)N2CCCC12 (stereo unspecified)
inactive: [3] 100 % of control | [4] 104 % of control | [5] 97 % of control

COc1ccc(C2C3CCN2CC3)cc1 (stereo unspecified)
inactive: dose: 6.25 mg/kg/injection, schedule: Q01DX009 (ip), vehicle: saline 111 % of control | dose: 12.5 mg/kg/injection, schedule: Q01DX009 (ip), vehicle: saline 109 % of control

COc1ccc2c(c1)OC(C)(C)C=C2
inactive: dose: 8.75 mg/kg/injection, schedule: Q01DX009 (ip), vehicle: saline with Tween-80 87 % of control | dose: 17.5 mg/kg/injection, schedule: Q01DX009 (ip), vehicle: saline with Tween-80 98 % of control | dose: 35.0 mg/kg/injection, schedule: Q01DX009 (ip), vehicle: saline with Tween-80 106 % of control | dose: 70.0 mg/kg/injection, schedule: Q01DX009 (ip), vehicle: saline with Tween-80 110 % of control

O=[N+]([O-])c1cc2[nH]cnc2c([N+](=O)[O-])c1NCc1ccccc1
inactive: dose: 100.0 mg/kg/injection, schedule: Q04DX002 (ip), vehicle: saline with Tween-80 98 % of control | dose: 200.0 mg/kg/injection, schedule: Q04DX002 (ip), vehicle: saline with Tween-80 97 % of control

CN(C)CCC(=O)c1ccc2c(c1)OCO2
inactive: [6] 100 % of control | [7] 92 % of control

Source: PubChem BioAssay AID330 (DTP/NCI, 2004)
